The results in this text go back to PMC5399635 (The Journal of Pharmacology and Experimental Therapeutics, 2017).

The Papp A→B is how fast a substance crosses the layer from the apical side. Low readings indicate poor permeation, high ones ready permeation. The Papp B→A is how fast a substance crosses the layer from the basolateral side. Broadly, the ED50 is the dose at which the effect has come halfway, by size or by number of responders. As a reminder, the Ki is the dissociation constant of the complex between target and ligand, obtained from inhibition or displacement. As usually defined, the Kb is the equilibrium dissociation constant of an antagonist, usually derived from a functional assay. A lower Kb goes with higher antagonist affinity. For orientation: pA2 means a measure of antagonist potency on a negative log scale.

The nature of data set [1]: in vitro. The settings on record: human.
Data set [2] is described as follows: In situ rat brain perfusion model. The settings on record: 30 s perfusion, test compound 20 μM, atenolol 50 μM, antipyrine 5 μM, mean ± S.D.
The test system of data set [3] is morphine-induced antinociception. In words: Hot plate model of nociception, antagonism of morphine.
In data set [4] the test system is morphine-induced inhibition of gastrointestinal transit. In words: Gastrointestinal transit model (charcoal meal), antagonism of morphine.
The conditions of data set [5]: rat, in vivo, 30 s, 20 μM, pH 7.4.
The target in data set [6] is T1, rat κ-opioid receptor (Rattus norvegicus, UniProt P34975).
T1 construct: expressed in transfected cells; host or cells: CHO cells
In words: Radioligand binding, κ-opioid receptor ([3H]U69593). The settings on record: cloned rat κ-opioid receptors; read-out: geometric mean Ki. As to the method: Competitive inhibition studies were performed on cloned opioid receptors expressed in membranes of Chinese hamster ovary (CHO) cells and conducted in triplicate (n = 3 independent experiments).
Radioligand binding assays were performed to evaluate the ability of these agents to inhibit specific radioligand binding to cloned opioid receptor subtypes. Half-maximal inhibitory concentration (IC50), equilibrium dissociation constant for the inhibitor (Ki), and negative log of the equilibrium dissociation constant for the inhibitor (pKi) values were obtained. The receptor binding methods used for µ ([Zhang et al., 1998])-, δ ([Simonin et al., 1994])-, and κ ([Meng et al., 1993])-opioid receptors have been described previously, with the exception that 100 mM NaCl was added to the incubation buffer in the µ-opioid receptor binding assay. All assays were conducted in 200-µl volume. All assay incubations were terminated by filtration, and bound radioligand was quantitated by liquid scintillation spectrometry. The IC50 values were determined by nonlinear regression analysis of the competition curves generated with the mean of duplicate values using Hill equation curve fitting. The inhibition constants (Ki) were calculated using the Cheng-Prusoff equation. The pKi results from three independent experiments were analyzed for significant differences by one-way analysis of variance (ANOVA) followed by Bonferroni multiple comparison test.

For data set [7], the target named is T2, human µ-opioid receptor (Homo sapiens, UniProt P35372). Briefly: Radioligand binding, µ-opioid receptor ([3H]diprenorphine). Further details: expressed in transfected cells; b18 says CHO cells. As to conditions: read-out: geometric mean Ki.
The target in data set [8] is T2, human µ-opioid receptor. In words: [35S]GTPγS binding, Schild-type antagonism of morphine (CHO-K1 membranes). (In general: GTPγS resists hydrolysis and so accumulates on activated G proteins.)

Counter-ions that a name gives are not always drawn. Like-named read-outs stand apart in the source and are kept apart here.

T2 sequence (P35372 whole entry): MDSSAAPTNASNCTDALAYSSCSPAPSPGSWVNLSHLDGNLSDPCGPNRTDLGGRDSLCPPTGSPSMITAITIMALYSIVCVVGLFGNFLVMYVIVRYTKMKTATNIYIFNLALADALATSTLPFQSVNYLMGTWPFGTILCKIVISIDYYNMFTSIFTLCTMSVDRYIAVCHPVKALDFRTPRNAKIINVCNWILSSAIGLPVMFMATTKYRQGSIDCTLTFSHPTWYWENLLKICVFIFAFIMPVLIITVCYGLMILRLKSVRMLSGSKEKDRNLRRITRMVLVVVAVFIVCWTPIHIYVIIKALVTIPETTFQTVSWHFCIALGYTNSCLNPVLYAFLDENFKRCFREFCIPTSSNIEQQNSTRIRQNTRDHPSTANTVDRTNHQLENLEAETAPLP
T1 sequence (P34975 whole entry): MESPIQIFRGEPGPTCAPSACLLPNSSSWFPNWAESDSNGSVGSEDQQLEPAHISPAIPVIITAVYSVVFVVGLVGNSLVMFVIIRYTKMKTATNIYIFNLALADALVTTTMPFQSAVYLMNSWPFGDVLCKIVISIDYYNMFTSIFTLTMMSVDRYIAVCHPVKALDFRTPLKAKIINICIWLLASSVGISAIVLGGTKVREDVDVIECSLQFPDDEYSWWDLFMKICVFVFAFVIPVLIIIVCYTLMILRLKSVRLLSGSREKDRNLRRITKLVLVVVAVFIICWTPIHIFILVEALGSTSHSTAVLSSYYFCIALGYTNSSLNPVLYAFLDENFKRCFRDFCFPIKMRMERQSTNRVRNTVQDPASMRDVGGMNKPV

As to `C=CCN1CC[C@]23c4c5ccc(O)c4O[C@H]2C(=O)CC[C@@]3(O)[C@H]1C5` [Naloxone, naloxone hydrochloride, reference compound], the Papp A→B at 2 h, 10 μM in data set [1] (Caco-2, pH 7.4, Papp A→B, no P-gp inhibitor, mean of 3 experiments) came out at 27.3 ×10⁻⁶ cm/s; in data set [1] (Caco-2, pH 7.4, with cyclosporin A, Papp A→B, Cyclosporin A) it was 28.4 ×10⁻⁶ cm/s; in data set [1] (Caco-2, pH 7.4, with elacridar, 0.5 μM, Papp A→B, Elacridar), 24.8 ×10⁻⁶ cm/s; in data set [1] (Caco-2, pH 7.4, with verapamil, 100 μM, Papp A→B, Verapamil), 24.5 ×10⁻⁶ cm/s. Also, the Papp B→A at 2 h, 10 μM is 25 ×10⁻⁶ cm/s in data set [1] (Caco-2, pH 7.4, Papp B→A, no P-gp inhibitor, mean of 3 experiments); 23.7 ×10⁻⁶ cm/s in data set [1] (Caco-2, pH 7.4, with cyclosporin A, Papp B→A, Cyclosporin A); 27.3 ×10⁻⁶ cm/s in data set [1] (Caco-2, pH 7.4, with elacridar, 0.5 μM, Papp B→A, Elacridar); 24.9 ×10⁻⁶ cm/s in data set [1] (Caco-2, pH 7.4, with verapamil, 100 μM, Papp B→A, Verapamil). For the same molecule, the “Brain Uptake” value in data set [2] is 60.2 ± 13.7 pmol/g brain/s. Also, the ED50 in data set [3] (Rattus norvegicus, po, read-out: ED50, antagonism of morphine analgesia) was determined as 1.14 mg/kg; in data set [4] (Rattus norvegicus, read-out: ED50, antagonism of morphine in GI transit), 0.69 mg/kg. Also, the “oral dose that completely reversed the analgesic effect of morphine” value in data set [3] (hot plate assay, rat) was ≥ 10 mg/kg. Moreover, the “oral dose that completely reversed the effect of morphine” value in data set [4] (GI transit assay, rat) was ≥ 10 mg/kg.

In the case of `Cc1cc(=O)n(-c2ccccc2)n1C` [Antipyrine, antipyrine], the “Brain Uptake” value in data set [5] is given as 28.2 ± 14.3 pmol/g brain/s.

Take `C[N@+]1(CC2CC2)CC[C@]23c4c5ccc(O)c4O[C@H]2C(=O)CC[C@@]3(O)[C@H]1C5` [Methylnaltrexone, Methylnaltrexone bromide]: the Ki in data set [6] came out at 10.9 nM; in data set [7], 22.1 nM. The same molecule had an antagonist dissociation constant (Kb) in data set [8] of 37 nM. The same molecule displayed a pA2 in data set [8] (versus morphine, 3 independent experiments) of 7.43 ± 0.02. Further, the Schild slope result in data set [8] (versus morphine, pooled 3 experiments) was “–0.982”.
